Counter-ions that a name gives are not always drawn.
These molecules were tested against MCH receptor (Homo sapiens, UniProt Q99705) (assay: FLIPR/FDSS6000 functional assay: intracellular Ca2+ changes evoked by MCH). Details: class by percent of control at 10^−7 M or by IC50; antagonist activity, 50 nM of MCH; read-out: class.
Assay type: cell-based
In short: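 Cells expressing a constitutively active, non-endogenous MCH receptor were loaded with 4 μM Fluo-4-AM for 1 hr at 37 °C. They were then preincubated 30 min with compound before MCH addition, using 50 nM MCH for antagonist testing. [Ca2+]i transients were monitored at Ex 488/Em 530 nm for 290 s by FLIPR or FDSS.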

Molecule | IC50
Cn1cnc2c(N[C@H]3CC[C@@H](NC(=O)c4ccc(F)c(Cl)c4)CC3)ncnc21 [Example 190, 3-Chloro-4-fluoro-N-{cis-4-[(9-methyl-9H-purin-6-yl)amino]cyclohexyl}benzamide hydrochloride] | > 200 nM
Cc1nc(N[C@H]2CC[C@@H](C(=O)Nc3ccc(F)c(Cl)c3)CC2)cc(N(C)C)n1 [Example 191, cis-N-(3-Chloro-4-fluorophenyl)-4-{[6-(dimethylamino)-2-methylpyrimidin-4-yl]amino}cyclohexanecarboxamide hydrochloride] | < 50 nM
Cc1nc(N[C@H]2CC[C@@H](C(=O)Nc3ccc(F)c(F)c3)CC2)cc(N(C)C)n1 [Example 192, cis-N-(3,4-Difluorophenyl)-4-{[6-(dimethylamino)-2-methylpyrimidin-4-yl]amino}cyclohexanecarboxamide hydrochloride] | 50 to 200 nM
Cc1nc(N[C@H]2CC[C@@H](C(=O)Nc3cc(F)c(F)c(F)c3)CC2)cc(N(C)C)n1 [Example 193, cis-4-{[6-(Dimethylamino)-2-methylpyrimidin-4-yl]amino}-N-(3,4,5-trifluorophenyl)-cyclohexanecarboxamide hydrochloride] | < 50 nM
Cc1nc(N[C@H]2CC[C@@H](C(=O)Oc3ccc(F)c(Cl)c3)CC2)cc(N(C)C)n1 [Example 194, 3-Chloro-4-fluorophenyl cis-4-{[6-(dimethylamino)-2-methylpyrimidin-4-yl]amino}-cyclohexanecarboxylate hydrochloride] | > 200 nM
Cc1nc(N[C@H]2CC[C@@H](C(=O)Nc3cc(Cl)cc(Cl)c3)CC2)cc(N(C)C)n1 [Example 195, cis-N-(3,5-Dichlorophenyl)-4-{[6-(dimethylamino)-2-methylpyrimidin-4-yl]amino}-cyclohexanecarboxamide hydrochloride] | > 200 nM
Cc1nc(N[C@H]2CC[C@@H](C(=O)Oc3ccc(F)c(F)c3)CC2)cc(N(C)C)n1 [Example 196, 3,4-Difluorophenyl cis-4-{[6-(dimethylamino)-2-methylpyrimidin-4-yl]amino}-cyclohexanecarboxylate hydrochloride] | > 200 nM
N^4-(cis-4-{[Bromo-2-(trifluoromethoxy)benzyl]amino}cyclohexyl)-N^2,N^2-dimethylpyrimidine-2,4-diamine dihydrochloride [Example 42] | > 200 nM

From patent US20090036448A1, “PYRIMIDINE DERIVATIVES AND METHODS OF TREATMENT RELATED TO THE USE THEREOF” (TAISHO PHARMECUTICAL CO., LTD., priority 2004, published 2009)
